Assay results as given in patent EP0441832B1, “COMPOSITION AND TREATMENT WITH BIOLOGICALLY ACTIVE PEPTIDES AND CERTAIN ANIONS” (THE CHILDREN'S HOSPITAL OF PHILADELPHIA, priority 1988, dated 1990).
Like-named read-outs stand apart in the source and are kept apart here. Ends that are not written are not given here.

Columns and labels:
Format in all cases: cell-based
[1] = system: ENTEROBACTER CLOACAE
Protocol: (§1) Approximately 1,000 bacteria were seeded into about 200 ul of trypticase soy broth. Either magainin 2 carboxy terminal amide, PGLa, or ALSKALSK ALSKALSKALSKALSK (Z-44) were added in increasing concentrations in the absence (Panel A) or presence (Panel B) of 50 mM NaF.

[2] = system: PSEUDOMONAS AERUGINOSA; conditions: Panel A: Absence of NaF; approx. 1,000 bacteria in about 200 ul trypticase soy broth
Protocol: as §1

[3] = system: E. cloacae; assay: Killing of bacteria: 15 min incubation in trypticase soy broth, then plating for viable organisms
Protocol: If 10⁷ E. cloacae organisms are inoculated into 1 ml of TSB in the presence of 60 ug/ml of MGN2, about 10⁶ bacteria are found to be viable on plating. […] The effective killing power of this antibiotic at a given concentration has been potentiated over 1 million-fold by the addition of fluoride.
LEGEND: Organisms were incubated in a volume of 1 ml in either trypticase soy broth alone or containing substances noted for 15 min at 37 °C. An aliquot was then diluted and plated to determine number of viable organisms.

[4] = peptide 60ug/ml + NaF 25 mM, 10⁷ organisms in 1 ml TSB, 15 min at 37 C

Substance	MINIMAL INHIBITORY CONCENTRATION [1]	MINIMAL INHIBITORY CONCENTRATION ([1]; Panel A: Absence of NaF, approx. 1,000 bacteria in about 200 ul trypticase soy broth, listed as MGN2 (Magainin II))	MINIMAL INHIBITORY CONCENTRATION [2]	bacteria viable on plating ([3]; 60 ug/ml peptide + 50 mM NaF, 10⁷ organisms in 1 ml TSB)	potentiation of effective killing power by the addition of fluoride ([3]; 60 ug/ml peptide, with vs without NaF)	CFU [3, 4]	EOP (% viable) [3, 4]	EOP (% viable) ([3]; peptide 60ug/ml alone, 10⁷ organisms in 1 ml TSB, 15 min at 37 C)	EOP (% viable) ([3]; NaF 25mM alone, 10⁷ organisms in 1 ml TSB, 15 min at 37 C)
GIGKFLHSAKKFGKAFVGEIMNS-NH2 [MGN2]	exceeded 500 ug/ml	MGN2 (Magainin II) >500 ug/ml	MGN 2 250-500 ug/ml	all bacteria are killed	over 1 million	0	0%	90%	
sodium fluoride [NaF]									100%
